Measurements: US9969699B2, “Cancer cell growth inhibitor, anticancer agent, and method for screening same, as well as novel compound” (Microbial Chemistry Research Foundation, priority 2014, dated 2018)

How the values were obtained:
[1] = test system: U251 cells; assay: 3D cell culture step, EGFR vIII gene non-expressing brain tumor cells U251; type: cell-based; settings: Test Example 3, U251 cells
Procedure: (§1) The following 3 brain tumor cells were used as the EGFR vIII gene non-expressing cells. • U251 cells (available from ATCC) • U87MG cells (available from ATCC) • KS-1 cells (available from ATCC) <3D Cell Culture Step>
(§2) After the 3 days of culture, the number of viable cells was counted by […]-GLO (trademark) Luminescent Cell Viability Assay (available from Promega), which was a method for quantitating ATP in viable cells. A cell proliferation inhibition rate in the 3D cell culture step was calculated according to (Expression 3) below. Cell proliferation inhibition rate(%)=(1−X/Y)×100 (Expression 3)
(§3) In the (Expression 3), X denotes the number of viable cells when the test substance was added, and Y denotes the number of viable cells when the test substance was not added.

[2] = test system: KS-1 cells; assay: 3D cell culture step, EGFR vIII gene non-expressing brain tumor cells KS-1; type: cell-based; settings: Test Example 3, KS-1 cells
Procedure: as §1, §2, §3

[3] = test system: NIH3T3 cells; assay: 2D cell culture step (environment with adhesion scaffold), proliferation of NIH3T3 cells; type: cell-based; settings: Mus musculus, 72 h; NIH3T3 cells, TC-treated plate, 3 days, […]-GLO; read-out: IC50 2D cell culture step
Procedure: Note that, as a negative control, the NIH3T3 cells at 2×10^3 cells/100 were seeded to the same plate in a volume of 100 μL per well and cultured at 37° C. in the presence of 5% CO2 for 3 days without the addition of the test substance.
Note that, Dulbecco's Modified Eagle Medium supplemented with 5% FBS was used for the culture.
A cell proliferation inhibition rate in the 2D cell culture step was calculated according to (Expression 2) below. Cell proliferation inhibition rate(%)=(1−D/E)×100 (Expression 2)
In the (Expression 2), D denotes the number of viable NIH3T3 cells when the test substance was added, and E denotes the number of viable NIH3T3 cells when the test substance was not added.

[4] = test system: U87MG cells; assay: 3D cell culture step, EGFR vIII gene non-expressing brain tumor cells U87MG; type: cell-based; settings: Test Example 3, U87MG cells
Procedure: as §1, §2, §3

[5] = test system: NIH3T3/EGFRWT cells; assay: 3D cell culture step, NIH3T3/EGFRWT cells in EGF-including medium; type: cell-based, mouse; settings: Test Example 3, NIH3T3/EGFRWT cells, EGF-including medium
Procedure: as §2, §3

[6] = test system: NIH3T3/EGFR vIII cells; assay: 3D cell culture step (environment without adhesion scaffold), proliferation of NIH3T3/EGFR vIII cells; type: cell-based, mouse; settings: for IC50: Mus musculus, 72 h, NIH3T3/EGFR vIII cells, Ultra Low Attachment plate, 3 days, […]-GLO
[7] = Acute toxicity test, oral administration; type: in vivo, ICR mice; settings: for Organ weight Heart / Organ weight Kidney (Left) / Organ weight Kidney (Right) / Organ weight Liver / Organ weight Lung / Organ weight Spleen / Organ weight Thymus: two weeks after
From the text: Two-weeks after the compounds represented by the Structural Formula (1) at the above concentrations were orally administered, the mice were dissected and organs thereof were weighed.
Two-weeks after the compounds represented by the Structural Formula (8) at the above concentrations were orally administered, the mice were dissected and organs thereof were weighed.

[8] = Acute toxicity test, intraperitoneal administration; type: in vivo, ICR mice; settings: for Organ weight Heart / Organ weight Kidney (Left) / Organ weight Kidney (Right) / Organ weight Liver / Organ weight Lung / Organ weight Spleen / Organ weight Thymus: two weeks after
From the text: Two-weeks after the compounds represented by the Structural Formula (1) at the above concentrations were intraperitoneally administered, the mice were dissected and organs thereof were weighed.
Two-weeks after the compounds represented by the Structural Formula (8) at the above concentrations were intraperitoneally administered, the mice were dissected and organs thereof were weighed.

[9] = test system: NIH3T3/EGFR vIII cell-transplanted tumor
[10] = 0.098 mg/kg/0.2 mL, orally once
[11] = 0.098 mg/kg/0.2 mL, intraperitoneally once
[12] = 0.195 mg/kg/0.2 mL, intraperitoneally once
[13] = 0.39 mg/kg/0.2 mL, intraperitoneally once
[14] = 0.78 mg/kg/0.2 mL, intraperitoneally once
[15] = 1.56 mg/kg/0.2 mL, intraperitoneally once
[16] = 3.125 mg/kg/0.2 mL, intraperitoneally once
[17] = 6.25 mg/kg/0.2 mL, intraperitoneally once
[18] = 12.5 mg/kg/0.2 mL, intraperitoneally once
[19] = 25 mg/kg/0.2 mL, intraperitoneally once
[20] = 50 mg/kg/0.4 mL, intraperitoneally once
[21] = 30 mg/kg intraperitoneally once a day, day 1 to day 17

## COc1cc2ncnc(Nc3cccc(Cl)c3)c2cc1OC [AG1478, reference compound]
[1]
  inhibiting activity against scaffold-independent proliferation capacity: did not exhibit an inhibiting activity
[2]
  inhibiting activity against scaffold-independent proliferation capacity: did not exhibit an inhibiting activity
[3]
  IC50: 50000 nM
[4]
  inhibiting activity against scaffold-independent proliferation capacity: did not exhibit an inhibiting activity
[5]
  inhibiting activity against scaffold-independent proliferation capacity: exhibited an inhibiting activity
[6]
  IC50: 1000 nM
[6]; Test Example 3, NIH3T3/EGFR vIII cells
  inhibiting activity against scaffold-independent proliferation capacity: exhibited an inhibiting activity
[6]; result in words from Table 1
  inhibition of proliferation of NIH3T3 cells expressing EGFR mutant vIII in the 3D cell culture step: inhibited proliferation

## Nc1ccc(I)cc1-c1nc2ccccc2[nH]c1=O [Structural Formula (8), 3-(2-Amino-5-iodophenyl)-2(1H)-quinoxalinone]
[7]; [10]
  Organ weight Heart: 124.0 mg
  Organ weight Kidney (Left): 165.0 mg
  Organ weight Kidney (Right): 181.0 mg
  Organ weight Liver: 1322.0 mg
  Organ weight Lung: 182.0 mg
  Organ weight Spleen: 125.0 mg
[7]; 6.25 mg/kg/0.2 mL, orally once
  Organ weight Heart: 119.0 mg
  Organ weight Lung: 171.0 mg
  Organ weight Thymus: 74.0 mg
[7]; 12.5 mg/kg/0.2 mL, orally once
  Organ weight Heart: 111.0 mg
  Organ weight Kidney (Left): 150.0 mg
  Organ weight Kidney (Right): 167.0 mg
  Organ weight Liver: 1375.0 mg
  Organ weight Lung: 159.0 mg
  Organ weight Spleen: 168.0 mg
  Organ weight Thymus: 90.0 mg
[7]; 25 mg/kg/0.2 mL, orally once
  Organ weight Heart: 110.0 mg
  Organ weight Kidney (Left): 140.0 mg
  Organ weight Kidney (Right): 152.0 mg
  Organ weight Liver: 1184.0 mg
  Organ weight Lung: 163.0 mg
  Organ weight Spleen: 92.0 mg
  Organ weight Thymus: 39.0 mg
[7]; 50 mg/kg/0.4 mL, orally once
  Organ weight Heart: 116.0 mg
  Organ weight Kidney (Left): 158.0 mg
  Organ weight Kidney (Right): 175.0 mg
  Organ weight Liver: 1331.0 mg
  Organ weight Lung: 176.0 mg
  Organ weight Spleen: 133.0 mg
  Organ weight Thymus: 87.0 mg
[7]; mouse, in vivo, po
  autopsy findings: slightly lighter livers and slightly heavier spleens were found at some doses
[7]; orally once, any doses (0.098 to 50 mg/kg)
  abnormalities: no abnormalities were found at any doses
[3]
  IC50: > 10000 nM
[8]; [11]
  Organ weight Heart: 118.0 mg
  Organ weight Kidney (Left): 160.0 mg
  Organ weight Kidney (Right): 172.0 mg
  Organ weight Liver: 1476.0 mg
  Organ weight Lung: 165.0 mg
  Organ weight Spleen: 176.0 mg
  Organ weight Thymus: 59.0 mg
[8]; [12]
  Organ weight Heart: 106.0 mg
  Organ weight Kidney (Left): 174.0 mg
  Organ weight Kidney (Right): 181.0 mg
  Organ weight Liver: 1442.0 mg
  Organ weight Lung: 166.0 mg
  Organ weight Spleen: 98.0 mg
  Organ weight Thymus: 66.0 mg
[8]; [13]
  Organ weight Heart: 108.0 mg
  Organ weight Kidney (Left): 146.0 mg
  Organ weight Kidney (Right): 158.0 mg
  Organ weight Liver: 1234.0 mg
  Organ weight Lung: 151.0 mg
  Organ weight Spleen: 69.0 mg
  Organ weight Thymus: 47.0 mg
[8]; [14]
  Organ weight Heart: 110.0 mg
  Organ weight Kidney (Left): 177.0 mg
  Organ weight Kidney (Right): 181.0 mg
  Organ weight Liver: 1324.0 mg
  Organ weight Lung: 163.0 mg
  Organ weight Spleen: 127.0 mg
  Organ weight Thymus: 60.0 mg
[8]; [15]
  Organ weight Heart: 125.0 mg
  Organ weight Kidney (Left): 161.0 mg
  Organ weight Kidney (Right): 179.0 mg
  Organ weight Liver: 1738.0 mg
  Organ weight Lung: 183.0 mg
  Organ weight Spleen: 158.0 mg
  Organ weight Thymus: 94.0 mg
[8]; [16]
  Organ weight Heart: 120.0 mg
  Organ weight Kidney (Left): 172.0 mg
  Organ weight Kidney (Right): 175.0 mg
  Organ weight Liver: 1710.0 mg
  Organ weight Lung: 165.0 mg
  Organ weight Spleen: 132.0 mg
  Organ weight Thymus: 60.0 mg
[8]; [17]
  Organ weight Heart: 120.0 mg
  Organ weight Kidney (Left): 158.0 mg
  Organ weight Kidney (Right): 178.0 mg
  Organ weight Liver: 1641.0 mg
  Organ weight Lung: 168.0 mg
  Organ weight Spleen: 124.0 mg
  Organ weight Thymus: 53.0 mg
[8]; [18]
  Organ weight Heart: 108.0 mg
  Organ weight Kidney (Left): 150.0 mg
  Organ weight Kidney (Right): 149.0 mg
  Organ weight Liver: 1356.0 mg
  Organ weight Lung: 165.0 mg
  Organ weight Spleen: 111.0 mg
  Organ weight Thymus: 78.0 mg
[8]; [19]
  Organ weight Heart: 108.0 mg
  Organ weight Kidney (Left): 149.0 mg
  Organ weight Kidney (Right): 155.0 mg
  Organ weight Liver: 1564.0 mg
  Organ weight Lung: 155.0 mg
  Organ weight Spleen: 138.0 mg
  Organ weight Thymus: 103.0 mg
[8]; [20]
  Organ weight Heart: 120.0 mg
  Organ weight Kidney (Left): 150.0 mg
  Organ weight Kidney (Right): 152.0 mg
  Organ weight Liver: 1551.0 mg
  Organ weight Lung: 166.0 mg
  Organ weight Spleen: 98.0 mg
  Organ weight Thymus: 66.0 mg
[8]; intraperitoneally once, any doses (0.098 to 50 mg/kg)
  abnormalities: no abnormalities were found at any doses
[8]; mouse, in vivo, ip
  autopsy findings: slightly lighter livers, and slightly lighter or heavier spleens were found at some doses
[9]; 30 mg/kg intraperitoneally once a day, 17 days after transplantation, t<0.05
  tumor weight versus negative control group: significantly different
[9]; [21]
  mouse body weight (weight loss): weight loss was not observed
  toxicity: no toxicity
  tumor proliferation inhibiting activity: exhibited the tumor proliferation inhibiting activity
[9]; 30 mg/kg intraperitoneally vs Gefitinib 100 mg/kg orally
  tumor proliferation inhibiting activity compared with Gefitinib: comparable
[6]; 3D cell culture step
  cell proliferation inhibiting activity compared with AG1478, Gefitinib and Erlotinib: more significant cell proliferation inhibiting activity
[6]
  IC50: 10 nM
